In ChEMBL document CHEMBL4402545, “Subtype Selective γ-Aminobutyric Acid Type A Receptor (GABAAR) Modulators Acting at the Benzodiazepine Binding Site: An Update” (J Med Chem, 2020):

Columns and labels:
Homo sapiens [1] = test: In vivo receptor occupancy at GABAA receptor in human assessed as plasma concentration causing reduction in [11C]-flumazenil receptor labeling at 9 ng/ml by PET method relative to control; assay type: functional
Rattus norvegicus [2] = test: In vivo receptor occupancy at GABAA receptor in po dosed rat assessed as brain concentration causing 50% reduction in [3H]-flumazenil receptor labeling after 18 hrs by scintillation counting method; assay type: functional
Rattus norvegicus [3] = test: In vivo receptor occupancy at GABAA receptor in po dosed rat assessed as plasma concentration causing 50% reduction in [3H]-flumazenil receptor labeling by scintillation counting method; assay type: functional
[4] = target: T1, Gamma-aminobutyric acid receptor subunit alpha-2 (Homo sapiens, UniProt P47869); test: Binding affinity to GABA-A alpha2 (unknown origin)
T1 sequence (P47869 whole entry): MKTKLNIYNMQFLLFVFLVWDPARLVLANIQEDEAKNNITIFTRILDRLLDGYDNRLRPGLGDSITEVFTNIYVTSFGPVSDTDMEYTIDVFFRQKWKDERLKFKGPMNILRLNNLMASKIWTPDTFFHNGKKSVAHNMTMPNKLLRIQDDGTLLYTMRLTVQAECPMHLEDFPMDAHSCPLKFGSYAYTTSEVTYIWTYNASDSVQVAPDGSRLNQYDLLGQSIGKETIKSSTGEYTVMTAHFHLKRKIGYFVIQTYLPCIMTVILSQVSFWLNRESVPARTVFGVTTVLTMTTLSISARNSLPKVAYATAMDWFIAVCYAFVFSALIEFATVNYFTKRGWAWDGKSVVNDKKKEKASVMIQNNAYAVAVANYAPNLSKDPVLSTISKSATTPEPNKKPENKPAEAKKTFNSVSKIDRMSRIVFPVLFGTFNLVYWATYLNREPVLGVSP

[5] = target: T2, Gamma-aminobutyric acid receptor subunit alpha-1 (Homo sapiens, UniProt P14867); test: Binding affinity to GABA-A alpha1 (unknown origin)
T2 sequence (P14867 whole entry): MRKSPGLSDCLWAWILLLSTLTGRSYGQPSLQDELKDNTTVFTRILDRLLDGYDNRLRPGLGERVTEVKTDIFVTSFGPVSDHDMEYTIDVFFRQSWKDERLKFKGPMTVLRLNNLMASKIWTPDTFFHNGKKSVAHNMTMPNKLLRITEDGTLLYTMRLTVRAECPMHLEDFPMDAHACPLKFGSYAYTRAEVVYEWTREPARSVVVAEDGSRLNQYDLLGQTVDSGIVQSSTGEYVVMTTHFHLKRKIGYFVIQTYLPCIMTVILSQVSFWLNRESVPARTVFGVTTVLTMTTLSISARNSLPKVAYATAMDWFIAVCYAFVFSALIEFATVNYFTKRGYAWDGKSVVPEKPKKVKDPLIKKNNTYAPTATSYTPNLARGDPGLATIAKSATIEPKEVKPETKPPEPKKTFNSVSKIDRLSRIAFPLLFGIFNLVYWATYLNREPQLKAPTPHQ

[6] = target: T3, Gamma-aminobutyric acid receptor subunit alpha-3 (Homo sapiens, UniProt P34903); test: Binding affinity to GABA-A alpha3 (unknown origin)
T3 sequence (P34903 whole entry): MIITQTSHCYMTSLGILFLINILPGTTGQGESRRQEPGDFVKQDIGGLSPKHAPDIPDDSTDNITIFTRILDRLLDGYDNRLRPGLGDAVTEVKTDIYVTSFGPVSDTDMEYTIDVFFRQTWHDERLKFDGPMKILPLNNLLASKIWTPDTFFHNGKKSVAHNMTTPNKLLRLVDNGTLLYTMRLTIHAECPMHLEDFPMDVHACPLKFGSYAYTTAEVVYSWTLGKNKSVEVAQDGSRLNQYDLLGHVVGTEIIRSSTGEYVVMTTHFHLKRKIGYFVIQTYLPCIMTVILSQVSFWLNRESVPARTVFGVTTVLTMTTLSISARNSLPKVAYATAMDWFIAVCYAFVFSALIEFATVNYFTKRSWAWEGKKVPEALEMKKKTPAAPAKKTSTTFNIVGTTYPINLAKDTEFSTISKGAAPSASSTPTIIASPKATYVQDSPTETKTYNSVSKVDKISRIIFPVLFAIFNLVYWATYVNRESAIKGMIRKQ

[7] = target: T4, Gamma-aminobutyric acid receptor subunit alpha-5 (Homo sapiens, UniProt P31644); test: Binding affinity to GABA-A alpha5 (unknown origin)
T4 sequence (P31644 whole entry): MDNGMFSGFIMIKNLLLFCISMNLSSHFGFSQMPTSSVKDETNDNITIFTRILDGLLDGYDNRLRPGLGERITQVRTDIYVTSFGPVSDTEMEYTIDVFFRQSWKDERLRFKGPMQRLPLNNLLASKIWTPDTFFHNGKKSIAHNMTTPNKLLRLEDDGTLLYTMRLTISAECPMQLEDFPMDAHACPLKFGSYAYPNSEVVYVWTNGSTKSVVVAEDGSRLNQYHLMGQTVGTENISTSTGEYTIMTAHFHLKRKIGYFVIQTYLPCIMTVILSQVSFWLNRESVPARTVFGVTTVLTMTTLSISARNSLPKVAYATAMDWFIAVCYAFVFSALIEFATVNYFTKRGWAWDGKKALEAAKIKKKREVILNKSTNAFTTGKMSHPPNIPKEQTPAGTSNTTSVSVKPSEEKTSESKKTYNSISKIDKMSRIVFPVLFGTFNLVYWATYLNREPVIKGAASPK

[8] = target: T5, Gamma-aminobutyric acid receptor subunit alpha-1 (Homo sapiens) (UniProt P14867); test: Binding affinity to GABA-A alpha1 (unknown origin) assessed as increase in induced current relative to control
T5 sequence (whole entry): T2 sequence (P14867 whole entry)

[9] = target: T6, Gamma-aminobutyric acid receptor subunit alpha-2 (Homo sapiens) (UniProt P47869); test: Binding affinity to GABA-A alpha2 (unknown origin) assessed as increase in induced current relative to control
T6 sequence (whole entry): T1 sequence (P47869 whole entry)

[10] = target: T7, Gamma-aminobutyric acid receptor subunit alpha-3 (Homo sapiens) (UniProt P34903); test: Binding affinity to GABA-A alpha3 (unknown origin) assessed as increase in induced current relative to control
T7 sequence (whole entry): T3 sequence (P34903 whole entry)

[11] = target: T8, Gamma-aminobutyric acid receptor subunit alpha-5 (Homo sapiens) (UniProt P31644); test: Binding affinity to GABA-A alpha5 (unknown origin) assessed as increase in induced current relative to control
T8 sequence (whole entry): T4 sequence (P31644 whole entry)

Rattus norvegicus [12] = test: In vivo receptor occupancy at GABAA receptor in po dosed Sprague-Dawley rat assessed as brain concentration causing 50% reduction in [3H]-flumazenil receptor labeling after 0.75 hrs by scintillation counting method; assay type: functional
Rattus norvegicus [13] = test: In vivo receptor occupancy at GABAA receptor in po dosed Sprague-Dawley rat assessed as plasma concentration causing 50% reduction in [3H]-flumazenil receptor labeling by scintillation counting method; assay type: functional
Homo sapiens [14] = test: In vivo receptor occupancy GABAA receptor in human assessed as neocortical regions concentration causing reduction in [11C]flumazenil receptor labeling at 1.5 mg after 5 hrs by PET method relative to control; assay type: functional
Homo sapiens [15] = test: In vivo receptor occupancy GABAA receptor in human assessed as neocortical regions concentration causing reduction in [11C]flumazenil receptor labeling at 1.5 mg after 24 hrs by PET method relative to control; assay type: functional
Homo sapiens [16] = test: In vivo receptor occupancy at GABAA receptor in po dosed human assessed as plasma concentration causing 50% reduction in [11C]-flumazenil receptor labeling; assay type: functional

Compound | Occ (Homo sapiens [1]) [%] | Occ50 (Rattus norvegicus [2]) [mg/kg] | Occ50 (Rattus norvegicus [3]) [ng/mL] | Ki [4] [nM] | Ki [5] [nM] | Ki [6] [nM] | Ki [7] [nM] | fold change (FC) [8] | fold change (FC) [9] | fold change (FC) [10] | fold change (FC) [11] | Occ50 (Rattus norvegicus [12]) [mg/kg] | Occ50 (Rattus norvegicus [13]) [ng/mL] | Occ (Homo sapiens [14]) [%] | Occ (Homo sapiens [15]) [%] | Occ50 (Homo sapiens [16]) [ng/mL]
CCn1ncnc1COc1nn2c(-c3ccccc3F)nnc2cc1C(C)(C)C [MK-0777] | 50 | 0.42 | 25 |  |  |  |  |  |  |  |  |  |  |  |  | 
CC(C)(O)c1cnn2c(-c3ccc(F)c(-c4c(F)cccc4C#N)c3)cnc2n1 |  |  |  | 2 | 0.73 | 1.8 | 1.1 | 0.03 | 0.38 | 0.5 | 0.37 | 0.09 | 19 | 52 | 46 | 5.8
